| SMILES | logP |
| --- | --- |
| CNC(=S)NCC(F)(F)C(F)(F)C(F)(F)F | 1.99 |
| NNc1ccc(Br)cc1 | 1.39 |
